This is an account of results in US20040219220A1, “Therapeutic agents” (priority 2001, published 2004).

The nature of data set [1]: Extruder barrel temperature profile: ibuprofen content and degradation products after melt extrusion (Example 24). The following applies: up to a maximum extruder setting of 140 C. In kind it is physicochemical. As for the experimental part:
The method set out in Example 1 was used. The extruder screw speed was set to a constant 600 rpm. The powder feed rate was also set to a constant value. to give a constant feed rate of powder into the extruder. The product of each trial was analysed to determine the level of the two major ibuprofen degradation products: 2-(4-isobutyrylphenyl) propionic acid (BTS 47711) and 4-isobutylacetophenone (BTS 40655).

Data set [2] is described as follows: Extruder temperature/throughput matrix: ibuprofen content and degradation products after melt extrusion (Example 25). In kind it is physicochemical. The following applies: 95 C to 130 C, 102 kg/hour to 216 kg/hour. Here is the method: Further trials using the method of Example 1 but under process conditions as shown in Table 3 were conducted to determine the maximum output from the extruder by varying barrel temperature and powder feed rates, as shown in Table IIA.10.
Once the required extruder barrel temperature had been reached, the extruder was started and allowed to run for 15 minutes in order to equilibrate prior to sample collection.
Samples were collected for analysis to determine the level of degradation products formed.

Consider `CC(C)Cc1ccc(C(C)C(=O)O)cc1` (racemic) [ibuprofen], for which the “ibuprofen degradation as a result of the melt extrusion process” value in data set [1] is listed as “no evidence of ibuprofen degradation”. Also, the “degradation of ibuprofen over extruder barrel temperatures and throughputs” value in data set [2] is “no evidence of degradation”.
